From US9624228B2, “Inhibitors of ERK and methods of use” (KURA ONCOLOGY, INC., priority 2013, dated 2017)

target: ERK2 enzyme (Homo sapiens (Human), UniProt P28482); assay: Inhibition assay of ERK (Z'-LYTE kinase assay, Ser/Thr 3 peptide substrate); format: biochemical; conditions: In vitro ERK2 enzyme, 100 μM ATP
Experimental: The inhibition of ERK activity by the compounds disclosed herein was determined using the Z′-LYTE kinase assay kit (Life Technologies) with a Ser/Thr 3 peptide substrate (Life Technologies) according to manufacturers' instructions. […] The IC50 values for the compounds were determined with 3-fold serial dilutions in duplicate. […] The final DMSO concentration in the assay was 1%. Final reaction volume was 20 μL/well in 384-well plates. Kinase reactions were conducted or 1 hour followed by the assay development reaction (1 hour) in a 20 ul/well in a 384 well plate format.

Sequence of ERK2 enzyme (P28482 whole entry): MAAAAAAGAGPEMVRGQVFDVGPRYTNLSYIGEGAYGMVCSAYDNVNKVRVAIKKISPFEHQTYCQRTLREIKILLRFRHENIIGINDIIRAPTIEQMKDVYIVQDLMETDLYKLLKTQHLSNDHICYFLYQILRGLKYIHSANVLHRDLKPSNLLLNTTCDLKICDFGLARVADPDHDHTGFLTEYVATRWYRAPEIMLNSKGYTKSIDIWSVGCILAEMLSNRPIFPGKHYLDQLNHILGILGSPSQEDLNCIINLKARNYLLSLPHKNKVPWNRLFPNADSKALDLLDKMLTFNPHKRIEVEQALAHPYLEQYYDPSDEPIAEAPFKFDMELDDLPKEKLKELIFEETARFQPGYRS

`COc1ncc(-c2n[nH]c3cc4c(cc23)CN(CCc2cccc(Cl)c2)C(=O)N4)cn1` [Compound 86] and `COc1ncc(-c2n[nH]c3cc4c(cc23)CN(Cc2cccc(Cl)c2)C(=O)N4)cn1` [Compound 68] cannot be ordered by IC50: under 50 nM for the first, under 50 nM for the second.

`O=C1Nc2cc3[nH]nc(-c4ccncc4)c3cc2CN1Cc1ccccc1` [Compound 1, 6-benzyl-3-(pyridin-4-yl)-1,5,6,8-tetrahydro-7H-pyrazolo[4,3-g]quinazolin-7-one] and `Cc1cc(-c2n[nH]c3cc4c(cc23)CN(Cc2cccc(Cl)c2)C(=O)N4)ccn1` [Compound 4] cannot be ordered by IC50: under 50 nM for the first, under 50 nM for the second.

First: COc1ncc(-c2n[nH]c3cc4[nH]c(=O)c(C(C)c5cccc(Cl)c5)cc4cc23)cn1 (stereo not drawn) [Compound 129]
Second: COc1ncc(-c2n[nH]c3cc4c(cc23)CN([C@H](CO)c2cccc(Cl)c2)C(=O)N4)cn1 [Compound 118]
The IC50 of the first is higher: 50 to 250 nM for the first, under 50 nM for the second. The second is the more potent here.

First: CS(=O)(=O)c1ccc(-c2n[nH]c3cc4c(cc23)CN(Cc2cccc(Cl)c2)C(=O)N4)cc1 [Compound 89]
Second: N#Cc1ccc(-c2n[nH]c3cc4c(cc23)CN(Cc2cccc(Cl)c2)C(=O)N4)cc1 [Compound 94]
The IC50 of the first is lower: under 50 nM for the first, 50 to 250 nM for the second. The first is the more potent here.

`O=C1Nc2cc3[nH]nc(-c4ccnnc4)c3cc2CN1Cc1cccc(C(F)(F)F)c1` [Compound 124] and `N#Cc1cccc(CN2Cc3cc4c(-c5ccnnc5)n[nH]c4cc3NC2=O)c1` [Compound 128] cannot be ordered by IC50: under 50 nM for the first, under 50 nM for the second.

First: Cc1cccc(-c2n[nH]c3cc4c(cc23)CN(Cc2cccc(Cl)c2)C(=O)N4)n1 [Compound 108]
Second: Cc1ccc(-c2n[nH]c3cc4c(cc23)CN(Cc2cccc(Cl)c2)C(=O)N4)cn1 [Compound 58]
The IC50 of the first is higher: 50 to 250 nM for the first, under 50 nM for the second.

Compared with `Cc1cc(-c2n[nH]c3cc4[nH]c(=O)c(Cc5ccc(F)cc5)cc4cc23)ccn1` [Compound 21], `Cc1cc(-c2n[nH]c3cc4c(cc23)CN(Cc2ccc(F)cc2)C(=O)N4)ccn1` [Compound 30] is lower in IC50: 50 to 250 nM for the first, under 50 nM for the second.

`Cc1cc(-c2n[nH]c3cc4c(cc23)CN(CCN)C(=O)N4)ccn1` [Compound 83] and `COCCN1Cc2cc3c(-c4ccnc(C)c4)n[nH]c3cc2NC1=O` [Compound 52] cannot be ordered by IC50: under 50 nM for the first, under 50 nM for the second.

`Cc1cc(-c2n[nH]c3cc4c(cc23)CN([C@H](C)CO)C(=O)N4)ccn1` [Compound 54] and `Cc1cc(-c2n[nH]c3cc4c(cc23)CN([C@H](C)c2ccccc2)C(=O)N4)ccn1` [Compound 2, (R)-3-(2-methylpyridin-4-yl)-6-(1-phenylethyl)-5,6-dihydro-1H-pyrazolo[4,3-g]quinazolin-7(8H)-one] cannot be ordered by IC50: under 50 nM for the first, under 50 nM for the second.

`Cc1cc(-c2n[nH]c3cc4c(cc23)CN([C@@H]2CCCN(Cc3ccc(F)c(Cl)c3)C2)C(=O)N4)ccn1` [Compound 134] and `Cc1cc(-c2n[nH]c3cc4c(cc23)CN([C@@H]2CCCN(Cc3cccc(F)c3)C2)C(=O)N4)ccn1` [Compound 184] cannot be ordered by IC50: under 50 nM for the first, under 50 nM for the second.

Compared with `Cc1cc(-c2n[nH]c3cc4c(cc23)CN([C@@H]2CCCN(CCC3CC3)C2)C(=O)N4)ccn1` [Compound 155], `Cc1cc(-c2n[nH]c3cc4c(cc23)CN([C@@H]2CCCN(CC3CC3)C2)C(=O)N4)ccn1` [Compound 62] is higher in IC50: under 50 nM for the first, 50 to 250 nM for the second. The first is the more potent here.

`Cc1cc(-c2n[nH]c3cc4c(cc23)CN([C@@H]2CCCN(Cc3ccccc3)C2)C(=O)N4)ccn1` [Compound 63] and `O=C1Nc2cc3[nH]nc(-c4ccnnc4)c3cc2CN1[C@@H]1CCCN(Cc2ccccc2)C1` [Compound 120] cannot be ordered by IC50: under 50 nM for the first, under 50 nM for the second.

`Cn1cc(-c2n[nH]c3cc4c(cc23)CN(Cc2ccc(F)c(Cl)c2)C(=O)N4)ccc1=O` [Compound 41] and `COc1ncc(-c2n[nH]c3cc4c(cc23)CN(Cc2ccc(F)c(Cl)c2)C(=O)N4)cn1` [Compound 37] cannot be ordered by IC50: under 50 nM for the first, under 50 nM for the second.

First: COc1ncc(-c2n[nH]c3cc4c(cc23)CN(CCCN)C(=O)N4)cn1 [Compound 112]
Second: COc1ncc(-c2n[nH]c3cc4c(cc23)CN(CCN)C(=O)N4)cn1 [Compound 113]
The IC50 of the first is lower: under 50 nM for the first, 50 to 250 nM for the second.

First: Cc1cc(-c2n[nH]c3cc4c(cc23)CN(C2CN(CCC3CC3)C2)C(=O)N4)ccn1 [Compound 189]
Second: Cc1cc(-c2n[nH]c3cc4c(cc23)CN([C@@H]2CCCN(Cc3cc(F)ccc3F)C2)C(=O)N4)ccn1 [Compound 187]
The IC50 of the first is higher: 50 to 250 nM for the first, under 50 nM for the second.

Compared with `Cc1cc(-c2n[nH]c3cc4c(cc23)CN(Cc2ccc(C(F)(F)F)cc2)C(=O)N4)ccn1` [Compound 12], `Cc1cc(-c2n[nH]c3cc4c(cc23)CN(CCc2ccc(F)cc2)C(=O)N4)ccn1` [Compound 18] is lower in IC50: 50 to 250 nM for the first, under 50 nM for the second.

`Cc1cc(-c2n[nH]c3cc4c(cc23)CN(Cc2nccs2)C(=O)N4)ccn1` [Compound 56] and `Cc1cc(-c2n[nH]c3cc4c(cc23)CN([C@H](C)c2ccc(C#N)cc2)C(=O)N4)ccn1` [Compound 23] cannot be ordered by IC50: under 50 nM for the first, under 50 nM for the second.

`COc1ccc(-c2n[nH]c3cc4c(cc23)CN(Cc2cc(F)cc(F)c2)C(=O)N4)cn1` [Compound 92] and `COc1ccc(-c2n[nH]c3cc4c(cc23)CN(CCc2cccc(Cl)c2)C(=O)N4)cn1` [Compound 85] cannot be ordered by IC50: under 50 nM for the first, under 50 nM for the second.

`O=C1Nc2cc3[nH]nc(-c4ccnnc4)c3cc2CN1[C@@H]1CCCN(Cc2c(F)cccc2F)C1` [Compound 122] and `COc1cccc(F)c1CN1CCC[C@@H](N2Cc3cc4c(-c5ccnc(C)c5)n[nH]c4cc3NC2=O)C1` [Compound 144] cannot be ordered by IC50: under 50 nM for the first, under 50 nM for the second.

First: Cc1cc(-c2n[nH]c3cc4c(cc23)CN([C@@H]2CCCN(C(C)c3ccccc3)C2)C(=O)N4)ccn1 (stereo partly drawn) [Compound 154]
Second: Cc1cc(-c2n[nH]c3cc4c(cc23)CN([C@@H]2CCCN(C(C)c3ccc(F)cc3)C2)C(=O)N4)ccn1 (stereo partly drawn) [Compound 179]
The IC50 of the first is lower: under 50 nM for the first, 50 to 250 nM for the second.

`O=C1Nc2cc3[nH]nc(-c4ccc5nncn5c4)c3cc2CN1Cc1cccc(Cl)c1` [Compound 59] and `Nc1ncc(-c2n[nH]c3cc4c(cc23)CN(Cc2cccc(Cl)c2)C(=O)N4)cn1` [Compound 93] cannot be ordered by IC50: under 50 nM for the first, under 50 nM for the second.

same assay, conditions: In vitro, ERK2 enzyme 0.47 ng/μL, 100 μM ATP

`Cc1cc(-c2n[nH]c3cc4c(cc23)CN([C@@H]2CCN(CCC(C)C)C2)C(=O)N4)ccn1` [Compound 207] and `Cc1cc(-c2n[nH]c3cc4c(cc23)CN([C@@H]2CCN(C(C)C)C2)C(=O)N4)ccn1` [Compound 268] fall in the same range of IC50: 50 to 250 nM for the first, 50 to 250 nM for the second.

First: CC(c1ccccc1)c1cc2cc3c(-c4ccc(N5CCOCC5)nc4)n[nH]c3cc2[nH]c1=O (stereo not drawn) [Compound 324]
Second: CC(c1ccccc1)c1cc2cc3c(-c4ccnnc4)n[nH]c3cc2[nH]c1=O (stereo not drawn) [Compound 323]
The IC50 of the first is higher: 50 to 250 nM for the first, under 50 nM for the second. The second is the more potent here.

`Cc1cc(-c2n[nH]c3cc4c(cc23)CN([C@@H]2CCC[C@@H](NCc3ccccc3)C2)C(=O)N4)ccn1` [Compound 313] and `Cc1cc(-c2n[nH]c3cc4c(cc23)CN([C@H]2CCN(Cc3ccccc3)C2)C(=O)N4)ccn1` [Compound 301] cannot be ordered by IC50: under 50 nM for the first, under 50 nM for the second.

`O=C1Nc2cc3[nH]nc(-c4cccnc4)c3cc2CN1[C@@H]1CN(CC(F)(F)F)C[C@H]1c1ccccc1` [Compound 341] and `Cc1cc(-c2n[nH]c3cc4c(cc23)CN([C@@H]2CN(CCO)C[C@H]2c2ccccc2)C(=O)N4)ccn1` (mixture of isomers) [Compound 376] cannot be ordered by IC50: under 50 nM for the first, under 50 nM for the second.

`Cc1cc(-c2n[nH]c3cc4c(cc23)CN(C2CN(CC3CCCC3)CC(F)(F)C2)C(=O)N4)ccn1` (stereo not drawn) [Compound 201] and `Cc1cc(-c2n[nH]c3cc4c(cc23)CN([C@@H]2CN(Cc3ccccc3)CC(F)(F)C2)C(=O)N4)ccn1` [Compound 263] fall in the same range of IC50: 250 to 1000 nM for the first, 250 to 1000 nM for the second.

`Cc1cc(-c2n[nH]c3cc4c(cc23)CN([C@@H]2CN(C)C[C@H]2c2ccccc2)C(=O)N4)ccn1` (racemic) [Compound 241] and `Cc1cc(-c2n[nH]c3cc4c(cc23)CN(C2CCC(=O)N(Cc3ccccc3)C2)C(=O)N4)ccn1` (stereo not drawn) [Compound 232] cannot be ordered by IC50: under 50 nM for the first, under 50 nM for the second.

First: Cn1nccc1-c1n[nH]c2cc3c(cc12)CN(Cc1cccc(Cl)c1)C(=O)N3 [Compound 235]
Second: Cc1cc(-c2n[nH]c3cc4c(cc23)CN(Cc2cccc(C(F)(F)F)c2)C(=O)N4)ccn1 [Compound 240]
The IC50 of the first is higher: 50 to 250 nM for the first, under 50 nM for the second.

`Cc1cc(-c2n[nH]c3cc4c(cc23)CN(CC2CCC2)C(=O)N4)ccn1` [Compound 253] and `Cc1cc(-c2n[nH]c3cc4c(cc23)CN(C(C)C2CCOCC2)C(=O)N4)ccn1` (stereo not drawn) [Compound 262] cannot be ordered by IC50: under 50 nM for the first, under 50 nM for the second.

`COc1ncc(-c2n[nH]c3cc4c(cc23)CN([C@@H]2CCCN(Cc3cccs3)C2)C(=O)N4)cn1` [Compound 295] and `Cc1cc(-c2n[nH]c3cc4c(cc23)CN([C@@H]2CCCN(Cc3cccs3)C2)C(=O)N4)ccn1` [Compound 254] cannot be ordered by IC50: under 50 nM for the first, under 50 nM for the second.

`COc1cc(-c2n[nH]c3cc4c(cc23)CN([C@@H]2CCCN(Cc3ccc(F)cc3F)C2)C(=O)N4)ccn1` [Compound 271] and `COc1ccc(-c2n[nH]c3cc4c(cc23)CN([C@@H]2CCN(CC(F)(F)F)C2)C(=O)N4)cn1` [Compound 277] cannot be ordered by IC50: under 50 nM for the first, under 50 nM for the second.

`Cc1cc(-c2n[nH]c3cc4c(cc23)CN([C@@H]2CN(CC(F)(F)F)C[C@H]2C(F)(F)F)C(=O)N4)ccn1` [Compound 331] and `Cc1ccc(-c2n[nH]c3cc4c(cc23)CN([C@@H]2CCN(CC(F)(F)F)C2)C(=O)N4)cn1` [Compound 274] cannot be ordered by IC50: under 50 nM for the first, under 50 nM for the second.

First: Cc1cc(-c2n[nH]c3cc4c(cc23)CN([C@@H]2CCCN(C3CCC3)C2)C(=O)N4)ccn1 [Compound 210]
Second: Cc1cc(-c2n[nH]c3cc4c(cc23)CN([C@@H]2CCCN(C(C)C(F)(F)F)C2)C(=O)N4)ccn1 (stereo partly drawn) [Compound 216]
The IC50 of the first is higher: 50 to 250 nM for the first, under 50 nM for the second.

First: Cn1cc(-c2n[nH]c3cc4c(cc23)CN([C@@H]2CCN(CC(F)(F)F)C2)C(=O)N4)cn1 [Compound 259]
Second: Cn1nccc1-c1n[nH]c2cc3c(cc12)CN([C@@H]1CCN(CC(F)(F)F)C1)C(=O)N3 [Compound 265]
The IC50 of the first is lower: under 50 nM for the first, 50 to 250 nM for the second.

Work on `Cc1cc(-c2n[nH]c3cc4c(cc23)CN(C(C)c2nccs2)C(=O)N4)ccn1` (stereo not drawn) [Compound 234] yielded an IC50 of under 50 nM.
